Experimental findings from ChEMBL document CHEMBL5724914, “Linking interpersonal differences in gut microbiota composition and drug biotransformation activity” (2024) are described below.

The nature of data set [1]: The drug is tested on Z-028 corresponding to mouse gut metagenome with ENA study accession number: PRJEB37062 and ENA sample accession number: ERS12561827 for biotransformation under anaerobic condition. The drug concentrations were measured over 9 timepoints collected between 0 and 24 hours of incubation by liquid-chromatography-coupled mass spectrometry (LC–MS). Conditions: 2 µM.

Data set [2] is described as follows: The drug is tested on Z-027 corresponding to metagenome with ENA study accession number: PRJEB37062 and ENA sample accession number: ERS12561826 for biotransformation under anaerobic condition. The drug concentrations were measured over 9 timepoints collected between 0 and 24 hours of incubation by liquid-chromatography-coupled mass spectrometry (LC–MS). The following applies: 2 µM.

A short description of data set [3]: The drug is tested on Z-025 corresponding to rabbit gut metagenome with ENA study accession number: PRJEB37062 and ENA sample accession number: ERS12561824 for biotransformation under anaerobic condition. The drug concentrations were measured over 9 timepoints collected between 0 and 24 hours of incubation by liquid-chromatography-coupled mass spectrometry (LC–MS). The following applies: 2 µM.

Data set [4] is described as follows: The drug is tested on Z-020 corresponding to rabbit gut metagenome with ENA study accession number: PRJEB37062 and ENA sample accession number: ERS12561819 for biotransformation under anaerobic condition. The drug concentrations were measured over 9 timepoints collected between 0 and 24 hours of incubation by liquid-chromatography-coupled mass spectrometry (LC–MS). The following applies: 2 µM.

A short description of data set [5]: The drug is tested on Z-019 corresponding to rat gut metagenome with ENA study accession number: PRJEB37062 and ENA sample accession number: ERS12561818 for biotransformation under anaerobic condition. The drug concentrations were measured over 9 timepoints collected between 0 and 24 hours of incubation by liquid-chromatography-coupled mass spectrometry (LC–MS). The following applies: 2 µM.

Data set [6] is described as follows: The drug is tested on Z-017 corresponding to mouse gut metagenome with ENA study accession number: PRJEB37062 and ENA sample accession number: ERS12561816 for biotransformation under anaerobic condition. The drug concentrations were measured over 9 timepoints collected between 0 and 24 hours of incubation by liquid-chromatography-coupled mass spectrometry (LC–MS). The following applies: 2 µM.

The nature of data set [7]: The drug is tested on Z-009 corresponding to pig gut metagenome with ENA study accession number: PRJEB37062 and ENA sample accession number: ERS12561809 for biotransformation under anaerobic condition. The drug concentrations were measured over 9 timepoints collected between 0 and 24 hours of incubation by liquid-chromatography-coupled mass spectrometry (LC–MS). Conditions: 2 µM.

A short description of data set [8]: The drug is tested on Z-007 corresponding to rat gut metagenome with ENA study accession number: PRJEB37062 and ENA sample accession number: ERS12561807 for biotransformation under anaerobic condition. The drug concentrations were measured over 9 timepoints collected between 0 and 24 hours of incubation by liquid-chromatography-coupled mass spectrometry (LC–MS). The following applies: 2 µM.

A short description of data set [9]: The drug is tested on Z-006 corresponding to mouse gut metagenome with ENA study accession number: PRJEB37062 and ENA sample accession number: ERS12561806 for biotransformation under anaerobic condition. The drug concentrations were measured over 9 timepoints collected between 0 and 24 hours of incubation by liquid-chromatography-coupled mass spectrometry (LC–MS). Conditions: 2 µM.

A short description of data set [10]: The drug is tested on Z-005 corresponding to metagenome with ENA study accession number: PRJEB37062 and ENA sample accession number: ERS12561805 for biotransformation under anaerobic condition. The drug concentrations were measured over 9 timepoints collected between 0 and 24 hours of incubation by liquid-chromatography-coupled mass spectrometry (LC–MS). Conditions: 2 µM.

A short description of data set [11]: The drug is tested on WLS-350 corresponding to human gut metagenome with ENA study accession number: PRJEB37062 and ENA sample accession number: ERS12561789 for biotransformation under anaerobic condition. The drug concentrations were measured over 9 timepoints collected between 0 and 24 hours of incubation by liquid-chromatography-coupled mass spectrometry (LC–MS). The following applies: 2 µM.

A short description of data set [12]: The drug is tested on WLS-086 corresponding to human gut metagenome with ENA study accession number: PRJEB37062 and ENA sample accession number: ERS12561752 for biotransformation under anaerobic condition. The drug concentrations were measured over 9 timepoints collected between 0 and 24 hours of incubation by liquid-chromatography-coupled mass spectrometry (LC–MS). The following applies: 2 µM.

For data set [13] the following is noted: human gut metagenome, 24 h, 2 µM.
The conditions of data set [14]: human gut metagenome, 24 h, 2 µM. This is another data set of the same source.
The conditions of data set [15]: human gut metagenome, 24 h, 2 µM. This is another data set of the same source.
For data set [16] the following is noted: human gut metagenome, 24 h, 2 µM. The source holds these as a separate data set.
For data set [17] the following is noted: human gut metagenome, 24 h, 2 µM. This is another data set of the same source.
The conditions of data set [18]: human gut metagenome, 24 h, 2 µM. The source holds these as a separate data set.
For data set [19] the following is noted: human gut metagenome, 24 h, 2 µM. The source holds these as a separate data set.
Data set [20] can be described thus: The drug is tested on WLS-073 corresponding to human gut metagenome with ENA study accession number: PRJEB37062 and ENA sample accession number: ERS12561749 for biotransformation under anaerobic condition. The drug concentrations were measured over 9 timepoints collected between 0 and 24 hours of incubation by liquid-chromatography-coupled mass spectrometry (LC–MS). Conditions: 2 µM.
Further: call rule not given here.

For `C#C[C@]1(OC(C)=O)CC[C@H]2[C@@H]3CCC4=C[C@@H](OC(C)=O)CC[C@@H]4[C@H]3CC[C@@]21C` [ETHYNODIOL DIACETATE], the “Bacterial Biotransformation” value in data set [1] was “Compound metabolized”; in data set [2], “Compound metabolized”; in data set [3] it was “Compound metabolized”; in data set [4], “Compound metabolized”; in data set [5] it was “Compound NOT metabolized”; in data set [6], “Compound metabolized”. The “Bacterial Biotransformation” value in data set [7], in data set [8], in data set [9], in data set [10], in [11] and in data set [12] was “Compound metabolized” in each case. The “Bacterial Biotransformation” value in data set [13], in data set [14], in data set [15], in [16], in data set [17] and in data set [18] was “Compound metabolized” each time. Moreover, the “Bacterial Biotransformation” value in data set [19] is recorded as “Compound metabolized”.
`CC(=O)SCC(Cc1ccccc1)C(=O)NCC(=O)OCc1ccccc1` (configuration not stated) [RACECADOTRIL]: the “Bacterial Biotransformation” value in data set [1] is on record as “Compound metabolized”; in [2], “Compound NOT metabolized”; in data set [3], “Compound metabolized”; in [4], “Compound metabolized”; in data set [5], “Compound metabolized”; in data set [6], “Compound metabolized”. The “Bacterial Biotransformation” value in data set [7], in data set [8], in [9] and in data set [10] was “Compound metabolized” in each case.
As to `N[C@@H](Cc1ccc(N(CCCl)CCCl)cc1)C(=O)O`, the “Bacterial Biotransformation” value in [4] is reported as “Compound metabolized”; in data set [11] it was “Compound NOT metabolized”; in data set [12], “Compound metabolized”; in data set [20], “Compound metabolized”; in data set [13] it was “Compound NOT metabolized”; in [14], “Compound NOT metabolized”. Besides, the “Bacterial Biotransformation” value in data set [15] is listed as “Compound NOT metabolized”; in [16] it was “Compound NOT metabolized”; in data set [17] it was “Compound metabolized”; in data set [19] it was “Compound metabolized”.
As to `O=C(O)c1cc(/N=N/c2ccc(S(=O)(=O)Nc3ccccn3)cc2)ccc1O` [SULFASALAZINE], the “Bacterial Biotransformation” value in data set [1] is on record as “Compound metabolized”; in data set [2], “Compound NOT metabolized”; in data set [3], “Compound metabolized”; in data set [4] it was “Compound metabolized”; in [6], “Compound metabolized”; in data set [7], “Compound metabolized”. Also, the “Bacterial Biotransformation” value in data set [8], in data set [9], in data set [10], in [11], in [12] and in data set [20] was “Compound metabolized” throughout. Moreover, the “Bacterial Biotransformation” value in data set [13], in [14], in data set [15], in data set [16], in data set [17] and in data set [18] was “Compound metabolized” throughout. Besides, the “Bacterial Biotransformation” value in data set [19] is reported as “Compound metabolized”.
With `O=C1CCc2ccc(OCCCCN3CCN(c4cccc(Cl)c4Cl)CC3)cc2N1` [ARIPIPRAZOLE], the “Bacterial Biotransformation” value in [1] is “Compound metabolized”; in data set [2], “Compound NOT metabolized”; in data set [3], “Compound metabolized”; in [4], “Compound metabolized”; in [5], “Compound NOT metabolized”; in [6], “Compound metabolized”. The “Bacterial Biotransformation” value in [7] is reported as “Compound metabolized”; in data set [8], “Compound NOT metabolized”; in data set [9], “Compound metabolized”; in data set [10], “Compound metabolized”.
As to `CN(C/C=C/C#CC(C)(C)C)Cc1cccc2ccccc12` [TERBINAFINE], the “Bacterial Biotransformation” value in data set [1] is “Compound NOT metabolized”; in [2], “Compound NOT metabolized”; in [4] it was “Compound NOT metabolized”; in data set [6], “Compound NOT metabolized”; in [7], “Compound metabolized”; in data set [8], “Compound NOT metabolized”. Also, the “Bacterial Biotransformation” value is given as “Compound NOT metabolized” in data set [9]; “Compound NOT metabolized” in data set [10]; “Compound metabolized” in data set [11]; “Compound metabolized” in data set [12]; “Compound NOT metabolized” in [13]; “Compound NOT metabolized” in [14]. Also, the “Bacterial Biotransformation” value in [15], in data set [16], in data set [18] and in data set [19] was “Compound NOT metabolized” each time.
For `N#Cc1ccc2[nH]cc(CCCCN3CCN(c4ccc5oc(C(N)=O)cc5c4)CC3)c2c1` [VILAZODONE], the “Bacterial Biotransformation” value in data set [1] was “Compound metabolized”; in data set [2], “Compound NOT metabolized”; in data set [3], “Compound NOT metabolized”; in data set [5] it was “Compound NOT metabolized”; in [6] it was “Compound NOT metabolized”; in data set [7], “Compound NOT metabolized”. The “Bacterial Biotransformation” value is given as “Compound NOT metabolized” in data set [8]; “Compound metabolized” in [9]; “Compound metabolized” in [10]; “Compound metabolized” in data set [11]; “Compound metabolized” in data set [12]; “Compound metabolized” in data set [20]. Also, the “Bacterial Biotransformation” value in [13] is reported as “Compound metabolized”; in data set [14], “Compound metabolized”; in data set [16], “Compound metabolized”; in data set [17] it was “Compound metabolized”; in data set [18], “Compound NOT metabolized”; in data set [19], “Compound metabolized”.
